These results are taken from article PMC3408453, “A Foldamer-Dendrimer Conjugate Neutralizes Synaptotoxic β-Amyloid Oligomers” (PLoS ONE, 2012).

The target of the assay is T1, Aβ oligomers (Homo sapiens, UniProt P05067).
T1 construct: a depsipeptide derivative of Aβ(1–42) was utilized; made in house; host or cells: chemical peptide synthesis (no expression host)
Description: Ligand-induced precipitation during ITC titration, followed by DLS. Conditions: 72 μM Aβ oligomer. As for the experimental part: Binding of 7 to the Aβ oligomers was monitored by means of isothermal titration calorimetry (ITC). […] The titrations were run at 288 K in order to improve the signal to noise ratio, and just above the precipitation limit as the ITC method is sensitive to the thermal noise caused by the stirring of large particles. […] These values strongly supported tight binding between the Aβ oligomer species and 7.
For DLS measurements, 500 µL Aβ(1–42) solution (c = 72 µM) was prepared in PBS, and placed in a low–volume sizing cell. Size distribution was measured at 25°C on a Malvern Zetasizer Nano ZS Instrument (Malvern Instruments Ltd. Worcestershire, UK) equipped with a He-Ne laser (633 nm) by means of Non-Invasive Back Scatter (NIBS®) technology, which involves detection of the scattered light at an angle of 173°. A titration routine was formulated consisting of 12 independent measurements with a 2-min delay after each. The calculated amount of 7 solution was added to the Aβ after every second measurement. During the titration, the molar quantity of 7 varied between 0–35 µM. For a single measurement, the correlation function and distribution of the apparent hydrodynamic diameter (dh) over the scattered intensity of the particles were determined on the basis of 14 scans. […]
For orientation: Isothermal titration calorimetry measures the heat released or taken up as one component is titrated into another.

T1 sequence (P05067 672-713 limits assumed): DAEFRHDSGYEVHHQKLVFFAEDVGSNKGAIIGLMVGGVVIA

For the compound `N=C(N)NCCC[C@@H](CC(=O)N[C@H]1CCCC[C@@H]1C(=O)N[C@H]1CCCC[C@@H]1C(=O)N[C@@H](CC(=O)O)CC(=O)N[C@H]1CCCC[C@@H]1C(=O)NCC(=O)NCC(=O)N[C@@H](CSC1CC(=O)N(CCC(=O)NCCNC(=O)CCN(CCC(=O)NCCNC(=O)CCN2C(=O)CC(SC[C@H](NC(=O)CNC(=O)CNC(=O)[C@H]3CCCC[C@@H]3NC(=O)C[C@H](CC(=O)O)NC(=O)[C@H]3CCCC[C@@H]3NC(=O)[C@H]3CCCC[C@@H]3NC(=O)C[C@H](CCCNC(=N)N)NC(=O)[C@H]3CCCC[C@@H]3N)C(N)=O)C2=O)CCN(CCC(=O)NCCNC(=O)CCN2C(=O)CC(SC[C@H](NC(=O)CNC(=O)CNC(=O)[C@H]3CCCC[C@@H]3NC(=O)C[C@H](CC(=O)O)NC(=O)[C@H]3CCCC[C@@H]3NC(=O)[C@H]3CCCC[C@@H]3NC(=O)C[C@H](CCCNC(=N)N)NC(=O)[C@H]3CCCC[C@@H]3N)C(N)=O)C2=O)CCC(=O)NCCNC(=O)CCN2C(=O)CC(SC[C@H](NC(=O)CNC(=O)CNC(=O)[C@H]3CCCC[C@@H]3NC(=O)C[C@H](CC(=O)O)NC(=O)[C@H]3CCCC[C@@H]3NC(=O)[C@H]3CCCC[C@@H]3NC(=O)C[C@H](CCCNC(=N)N)NC(=O)[C@H]3CCCC[C@@H]3N)C(N)=O)C2=O)C1=O)C(N)=O)NC(=O)[C@H]1CCCC[C@@H]1N` (stereo partly shown) [Compound 7], the “Concentration-dependent precipitation of Aβ oligomers during titration (ITC/DLS)” value is recorded as “the precipitation started just before the equivalence point of the second stage”.
